Results as given in patent publication US20230091047A1 (priority 2019, published 2023).
Read-outs that look alike come from different tables or passages of the source.

What was measured:
[1] = in vitro; type: cell-based; conditions: human, HepG2 or HepG2.117 cells, mean value
Experimental: Cytotoxicity of the compounds was tested using HepG2 or HepG2.117 cells, incubated for 3 or 4 days in the presence of compounds. The viability of the cells was assessed using the PERKIN ELMER ATPlite Luminescence Assay System.”

[2] = tested on: HBV (HepG2.117 cell line, inducibly HBV producing); assay: Anti-HBV activity: intracellular HBV DNA by real-time PCR in HepG2.117 cells after 3 days of treatment; type: cell-based, hepatitis B virus
Experimental: The anti HBV activity was measured using the HepG2.117 cell line, a stable, inducibly HBV producing cell line, which replicates HBV in the absence of doxycycline (Tet-off system). The HepG2 cell line is available from ATCCR under number HB-8065. Transfection of the HepG2 cell line can be as described in Sun and Nassal 2006 Journal of Hepatology 45 (2006) 636-645 “Stable HepG2- and Huh7-based human hepatoma cell lines for efficient regulated expression of infectious hepatitis B virus”.
For the antiviral assay, HBV replication was induced, followed by a treatment with serially diluted compound in 96-well plates. After 3 days of treatment, the antiviral activity was determined by quantification of intracellular HBV DNA using real-time PCR and an HBV specific primer set and probe.

[3] = ATPlite, 3-days incubation (not marked with *)
[4] = Hepatitis B virus, HepG2.117, 72 h, HepG2.117 cells, intracellular HBV DNA by real-time PCR, 3 days of treatment, mean value; read-out: EC50 (μM, mean value)
[5] = 3-days incubation (unmarked values), ATPlite
[6] = Hepatitis B virus, HepG2.117, 72 h, HepG2.117 cells, 3 days of treatment, intracellular HBV DNA by real-time PCR; mean value; read-out: EC50 (μM, mean value)

Work on CNC(=O)c1ccc(-n2c(N3CC4CC3C4)nc3c(c2=O)C[C@@H](C)N(C(=O)c2ccc(Cl)c(Cl)c2)C3)cc1 [Compound C408] yielded a CC50 at 3 days [1, 3] greater than 50 µM and an EC50 [2, 4] of 0.05 µM.

CNC(=O)c1ccc(-n2c(N[C@@H](C)c3nc[nH]n3)nc3c(c2=O)C[C@@H](C)N(C(=O)c2ccc(Cl)c(Cl)c2)C3)cc1 (single isomer, unassigned) [Compound C439b] gave a CC50 at 3 days [1, 3] greater than 50 µM and an EC50 [2, 4] greater than 10 µM.

With CNC(=O)c1ccc(-n2c(NC(C)C)nc3c(c2=O)C[C@@H](C)N(C(=O)c2ccc(Cl)c(Cl)c2)C3)c(C(C)C)c1 [Compound C420] the CC50 at 3 days [1, 3] was 25 µM and the EC50 ([2]; HepG2.117 cells, intracellular HBV DNA by real-time PCR, 3 days of treatment, mean value; read-out: EC50 (μM, mean value)) was 0.61 µM.

Work on COc1ccccc1-n1c(NCC2CCN(C(C)=O)CC2)nc2c(c1=O)CCN(C(=O)c1ccc(Cl)c(Cl)c1)C2 [Compound C25, 2-{[(1-acetylpiperidin-4-yl)methyl]amino}-7-(3,4-dichlorobenzoyl)-3-(2-methoxyphenyl)-5,6,7,8-tetrahydropyrido[3,4-d]pyrimidin-4(3H)-one] yielded a CC50 at 3 days [1, 5] greater than 50 µM and an EC50 [2, 6] of 44.7 µM.

In the case of CNC(=O)c1ccc(-n2c(NC(C)c3cc(C)no3)nc3c(c2=O)C[C@@H](C)N(C(=O)c2ccc(Cl)c(Cl)c2)C3)cc1 (stereo partly drawn) [Compound C433], the CC50 at 3 days [1, 3] is reported as greater than 50 µM and the EC50 [2, 4] is reported as 0.33 µM.

CCC1Cc2c(nc(NC(C)C)n(-c3ccc(S(C)(=O)=O)cc3)c2=O)CN1C(=O)c1ccc(Cl)c(Cl)c1 (stereo not drawn) [Compound C158, 7-(3,4-dichlorobenzoyl)-6-ethyl-3-[4-(methanesulfonyl)phenyl]-2-[(propan-2-yl)amino]-5,6,7,8-tetrahydropyrido[3,4-d]pyrimidin-4(3H)-one] showed a CC50 at 3 days [1, 5] greater than 50 µM and an EC50 [2, 6] of 1.14 µM.

CC(C)Nc1nc2c(c(=O)n1-c1ccc(S(C)(=O)=O)cc1)CCN(C(=O)c1cc3cc(Cl)ccc3[nH]1)C2 [Compound C357] showed a CC50 at 3 days [1, 5] greater than 50 µM.

CNC(=O)c1cccc(-n2c(NC(C)C)nc3c(c2=O)C[C@@H](C)N(C(=O)c2ccc(Cl)c(Cl)c2)C3)c1 [Compound C232, 3-[(6R)-7-(3,4-dichlorobenzoyl)-6-methyl-4-oxo-2-[(propan-2-yl)amino]-5,6,7,8-tetrahydropyrido[3,4-d]pyrimidin-3(4H)-yl]-N-methylbenzamide] gave a CC50 at 3 days [1, 5] greater than 50 µM and an EC50 [2, 6] of 0.15 µM.

CNC(=O)c1ccc(-n2c(NCC(C)c3nncn3C)nc3c(c2=O)C[C@@H](C)N(C(=O)c2ccc(Cl)c(Cl)c2)C3)cc1 (stereo partly drawn) [Compound C551] showed a CC50 at 3 days [1, 3] greater than 50 µM and an EC50 [2, 4] greater than 25 µM.

COc1ccc(CNc2nc3c(c(=O)n2-c2cc(OC)cc(S(C)(=O)=O)c2)CCN(C(=O)c2ccc(Cl)c(Cl)c2)C3)cc1 [Compound C87, 7-(3,4-dichlorobenzoyl)-3-[3-(methanesulfonyl)-5-methoxyphenyl]-2-{[(4-methoxyphenyl)methyl]amino}-5,6,7,8-tetrahydropyrido[3,4-d]pyrimidin-4(3H)-one] showed a CC50 at 3 days [1, 5] greater than 50 µM and an EC50 [2, 6] of 1.55 µM.

CNC(=O)c1noc2cc(-n3c(NC(C)C)nc4c(c3=O)C[C@@H](C)N(C(=O)c3ccc(Cl)c(Cl)c3)C4)ccc12 [Compound C638] gave a CC50 at 3 days [1, 3] greater than 50 µM and an EC50 [2, 4] of 0.14 µM.

CNC(=O)c1ccc(-n2c(N[C@@H](C)c3ccc(F)cc3)nc3c(c2=O)C[C@@H](C)N(C(=O)c2ccc(Cl)c(C(F)(F)F)c2)C3)cc1 [Compound C651] showed a CC50 at 3 days [1, 3] of 8.8 µM and an EC50 [2, 4] of 0.05 µM.

For Cc1cc(-c2ccc(-n3c(NC(C)C)nc4c(c3=O)C[C@@H](C)N(C(=O)c3ccc(Cl)c(Cl)c3)C4)cc2)on1 [Compound C246, (6R)-7-(3,4-dichlorobenzoyl)-6-methyl-3-[4-(3-methyl-1,2-oxazol-5-yl)phenyl]-2-[(propan-2-yl)amino]-5,6,7,8-tetrahydropyrido[3,4-d]pyrimidin-4(3H)-one], the CC50 at 3 days [1, 5] was greater than 50 µM and the EC50 [2, 6] was 0.19 µM.

Work on CC(C)Nc1nc2c(c(=O)n1-c1ccc(C(N)=O)cc1)C[C@@H](C)N(C(=O)c1ccc(Cl)c(Cl)c1)C2 [Compound C195, 4-[(6R)-7-(3,4-dichlorobenzoyl)-6-methyl-4-oxo-2-[(propan-2-yl)amino]-5,6,7,8-tetrahydropyrido[3,4-d]pyrimidin-3(4H)-yl]benzamide] yielded a CC50 at 3 days [1, 5] greater than 50 µM and an EC50 [2, 6] of 0.16 µM.

For CNC(=O)c1ccc(-n2c(NC(C)C)nc3c(c2=O)C[C@@H](C)N(C(=O)c2ccc(C(F)F)c(F)c2)C3)cc1 [Compound C500], the CC50 at 3 days [1, 3] was greater than 50 µM and the EC50 [2, 4] was 0.59 µM.

In the case of CNC(=O)c1ccc(-n2c(NC(C)C)nc3c(c2=O)CCN(C(=O)c2ccc(Cl)c(Cl)c2)C3)cc1Cl [Compound C210, 2-chloro-4-[7-(3,4-dichlorobenzoyl)-4-oxo-2-[(propan-2-yl)amino]-5,6,7,8-tetrahydropyrido[3,4-d]pyrimidin-3(4H)-yl]-N-methylbenzamide], the CC50 at 3 days [1, 5] is reported as greater than 50 µM and the EC50 [2, 6] is reported as 0.27 µM.

With COc1ccc(CNc2nc3c(c(=O)[nH]2)CCN(C(=O)c2ccc(Br)c(Br)c2)C3)cc1 [Compound C80, 7-(3,4-dibromobenzoyl)-2-{[(4-methoxyphenyl)methyl]amino}-5,6,7,8-tetrahydropyrido[3,4-d]pyrimidin-4(3H)-one] the CC50 at 3 days [1, 5] was greater than 50 µM and the EC50 [2, 6] was 2.02 µM.

For CNC(=O)c1ccc(-n2c(NC(C)C)nc3c(c2=O)C[C@@H](C)N(C(=O)c2cc(F)c(Br)cc2F)C3)cc1 [Compound C574], the CC50 at 3 days [1, 3] was greater than 50 µM and the EC50 [2, 4] was 0.73 µM.

With CNC(=O)c1ccc(-n2c(NC(C)C)nc3c(c2=O)C[C@@H](C)N(C(=O)c2cc4c(C)cc(OC)cc4[nH]2)C3)cc1 [Compound C567] the CC50 at 3 days [1, 3] was 36.5 µM and the EC50 [2, 4] was 0.67 µM.

With CC(C)Nc1nc2c(c(=O)n1-c1ccc(S(C)(=O)=O)cc1)CCN(C(=O)c1cc3cnccc3[nH]1)C2 [Compound C369] the CC50 at 3 days [1, 5] was greater than 50 µM.

With COc1ccc(CNc2nc3c(c(=O)n2-c2ccc(S(C)(=O)=O)cc2)C[C@H](c2ccc(F)cc2)N(C(=O)c2ccc(Cl)c(Cl)c2)C3)cc1 (single isomer, unassigned) [Compound C109B, (6*R)-7-(3,4-dichlorobenzoyl)-6-(4-fluorophenyl)-3-[4-(methanesulfonyl)phenyl]-2-{[(4-methoxyphenyl)methyl]amino}-5,6,7,8-tetrahydropyrido[3,4-d]pyrimidin-4(3H)-one] the CC50 at 3 days [1, 5] was greater than 50 µM.

In the case of CC(C)Nc1nc2c(c(=O)n1-c1ccc(S(C)(=O)=O)cc1)CCN(C(=O)c1cc3ncccc3[nH]1)C2 [Compound C368], the CC50 at 3 days [1, 5] is reported as greater than 50 µM.

With CC(C)Nc1nc2c(c(=O)n1-c1ccc(C(=O)N3CCOCC3)cc1)C[C@@H](C)N(C(=O)c1ccc(Cl)c(C(F)(F)F)c1)C2 [Compound C649] the CC50 at 3 days [1, 3] was greater than 50 µM.

Work on CNC(=O)c1ccc(-n2c(N[C@@H](C)c3ccc(C(F)(F)F)cc3)nc3c(c2=O)C[C@@H](C)N(C(=O)c2ccc(Cl)c(C(F)(F)F)c2)C3)cc1 [Compound C650] yielded an EC50 [2, 4] of 0.05 µM.

Work on CNC(=O)c1ccc(-n2c(NCc3cnn(-c4ccccc4)n3)nc3c(c2=O)C[C@@H](C)N(C(=O)c2ccc(Cl)c(Cl)c2)C3)cc1 [Compound C464] yielded an EC50 [2, 4] of 0.62 µM.

For CNC(=O)c1ncc(-n2c(NC)nc3c(c2=O)C[C@@H](C)N(C(=O)c2ccc(Cl)c(C(F)(F)F)c2)C3)n1C [Compound C702], the CC50 at 3 days ([1]; 3-days incubation (unmarked values), ATPlite viability) was greater than 50 µM.

CNC(=O)c1ccc(-n2c(N[C@@H](C)c3ccc(C(F)(F)F)c(F)c3)nc3c(c2=O)C[C@@H](C)N(C(=O)c2ccc(Cl)c(Cl)c2)C3)cc1 (single isomer, unassigned) [Compound C659b] gave an EC50 [2, 4] greater than 2.5 µM.
